This is an account of results in ChEMBL document CHEMBL5252605, “Design, synthesis, and biological testing of biphenylmethyloxazole inhibitors targeting HIV-1 reverse transcriptase” (Bioorg Med Chem Lett, 2023).

Each structure is given as a SMILES string. pEC50, pIC50: −log10 of the molar value. The source made the active and inactive calls. No cut-off for these calls is given here.

For data set [1], the system named is Human immunodeficiency virus 1. Nature of the data set: Antiviral activity against wildtype HIV-1 IIIb infected in human MT2 cells assessed as protection of viral infected cells. In kind it is functional, organism-based. The conditions noted are these: for pEC50: Human immunodeficiency virus 1, IIIB.
Data set [2] deals with Human immunodeficiency virus type 1 reverse transcriptase (Human immunodeficiency virus 1, UniProt Q72547). Nature of the data set: Inhibition of recombinant wildtype HIV-1 reverse transcriptase using r(A)350 as template and d(T)16 as primer preincubated with compound for 1 hrs followed by template/primer addition and measured after 30 mins by picogreen based plate reader analysis.

The next data set concerns MT2. Kind of data set: Cytotoxicity against human MT2 cells assessed as inhibition of cell growth. The format is toxicity, cell-based.
Data set [3] concerns the target Human immunodeficiency virus type 1 reverse transcriptase (Human immunodeficiency virus 1) (UniProt Q72547). Nature of the data set: Time dependent inhibition of recombinant wildtype HIV-1 reverse transcriptase at 0.1 to 1000000 nM. The conditions noted are these: dose 0.1-1e+06 nM, time 1-48 hrs.

As to `N#Cc1ccc(Nc2ncc(Cc3ccc(-c4ccccc4)cc3)o2)cc1`, the outcome in data set [1] was inactive. In addition, the pIC50 in data set [2] is less than 4.00. Moreover, the CC50 in the data set on MT2 is 80 µM.
In the case of `C=Cc1ccc(-c2cc(F)c(Cc3cnc(Nc4ccc(C#N)c(Cl)c4)o3)c(F)c2)cc1`, the pEC50 in data set [1] is 7.72. Further, the pIC50 in data set [2] was 7.77. Further, the CC50 in the data set on MT2 is 30 µM.
Consider `N#Cc1ccc(Nc2ncc(Cc3c(F)cc(-c4ccc(OS(=O)(=O)F)cc4)cc3F)o2)cc1`, for which the TDI entry in data set [3] is “inactive”. Moreover, the result in data set [1] was inactive. For the same compound, the pIC50 in data set [2] was less than 4.70. For the same compound, in the data set on MT2, the CC50 came out at 30 µM.
As to `N#Cc1ccc(Nc2ncc(Cc3c(F)cc(-c4ccc(OS(=O)(=O)F)cc4)cc3F)o2)cc1Cl`, the TDI result in data set [3] was “inactive”. In addition, the pEC50 in data set [1] was 5.37. Further, the pIC50 in data set [2] was 5.52. Further, the CC50 with MT2 came out at 25 µM.
Turning to `N#Cc1ccc(Nc2ncc(Cc3c(F)cc(-c4ccc(O)cc4)cc3F)o2)cc1Cl`, in data set [1], the pEC50 was 5.89. For the same compound, in data set [2], the pIC50 was 6.55. Also, the CC50 with MT2 was found to be 15 µM.
Regarding `N#Cc1ccc(Nc2ncc(Cc3c(F)cccc3F)o2)cc1Cl`, the pEC50 in data set [1] was 8.21.
On to `N#Cc1ccc(Nc2ncc(Cc3c(F)cc(-c4ccccc4)cc3F)o2)cc1`, for which the pEC50 in data set [1] is 6.77. Also, the pIC50 in data set [2] was 7.70. The 50% cytotoxic concentration (CC50) with MT2 is 59 µM.
In the case of `COc1ccc(-c2ccc(Cc3cnc(Nc4ccc(C#N)cc4)o3)cc2)cc1`, in data set [1], the outcome was inactive. Also, the pIC50 in data set [2] is less than 5.00. Moreover, the CC50 in the data set on MT2 worked out at 27 µM.
In the case of `N#Cc1ccc(Nc2ncc(Cc3c(F)cc(-c4ccc(C#N)cc4)cc3F)o2)cc1`, the pEC50 in data set [1] is 7.52. In addition, in data set [2], the pIC50 was 7.96. Further, in the data set with MT2, the CC50 amounted to 9 µM.
Take `N#Cc1ccc(Nc2ncc(Cc3c(F)cc(-c4ccc(C5CO5)cc4)cc3F)o2)cc1Cl` (configuration not stated): in data set [3], the TDI result was “inactive”. The pEC50 in data set [1] was 6.21. Moreover, the pIC50 in data set [2] was 6.36. In the data set with MT2, the CC50 stood at 25 µM.
Take `N#Cc1ccc(Nc2ncc(Cc3c(F)cc(-c4ccc(O)cc4)cc3F)o2)cc1`: the pEC50 in data set [1] was 5.26. In addition, the pIC50 in data set [2] is less than 6.00. Also, the CC50 in the data set with MT2 turned out to be 15 µM.
On to `N#Cc1ccc(-c2cc(F)c(Cc3cnc(Nc4ccc(C#N)c(Cl)c4)o3)c(F)c2)cc1`, for which the pEC50 in data set [1] is 7.80. In addition, the pIC50 in data set [2] is greater than 8.00. The CC50 in the data set with MT2 was determined as 9.5 µM.
